Reference: US5618537A, “Plant-based medicaments for increasing the tone and modulating the tone of the smooth muscular organ” (Steigerwald Arzneimittelwerk GmbH, priority 1991, dated 1997)

Legend:
[1] = tested on: carrageenan oedema; test: Carrageenan oedema model of the rat (paw volume, plethysmometer); format: in vivo; conditions: 4 mg/kg of body wt., 1/2 h before induction
Experimental: The carrageenan oedema model of the rat is an internationally recognised pharmacological method for uncovering clinically relevant anti-inflammatory agents.
The test substances were administered 1/2 h before induction of oedema; the control animals received the solvent (30% ethanol). The paw volume was measured with a plethysmometer before (0 value) oedema induction and 1, 2, 3, 4 and 6 hours after.
The anti-inflammatory action of the test substances was calculated according to the formula [formula] V=average value of the differences from the 0 value: drug group K=average value of the differences from the 0 value; control group

[2] = tested on: guinea-pig ileum; test: Increase in basal tone of resting isolated guinea-pig ileum (Magnus model); set-up: unit not given here; conditions: 40 μg/l; for Contraction induced by acetylcholine, Average value: average of 6

| Compound | % inhibition of carrageenan oedema ([1]; 1 h after oedema induction) [%] | % inhibition of carrageenan oedema ([1]; 2 h after oedema induction) [%] | % inhibition of carrageenan oedema ([1]; 3 h after oedema induction) [%] | % inhibition of carrageenan oedema ([1]; 4 h after oedema induction) [%] | % inhibition of carrageenan oedema ([1]; 6 h after oedema induction) [%] | Contraction induced by acetylcholine (comparison for increase in basal tone) ([2]; Table 2 series (STW 5-II), Expt. 1) | Contraction induced by acetylcholine (comparison for increase in basal tone) ([2]; Table 2 series (STW 5-II), Expt. 2) | Contraction induced by acetylcholine (comparison for increase in basal tone) ([2]; Table 2 series (STW 5-II), Expt. 3) | Contraction induced by acetylcholine (comparison for increase in basal tone) ([2]; Table 2 series (STW 5-II), Expt. 4) | Contraction induced by acetylcholine (comparison for increase in basal tone) ([2]; Table 2 series (STW 5-II), Expt. 5) | Contraction induced by acetylcholine (comparison for increase in basal tone) ([2]; Table 2 series (STW 5-II), Expt. 6) | Contraction induced by acetylcholine, Average value ([2]; Table 2 series (STW 5-II)) | Contraction induced by acetylcholine (comparison for increase in basal tone) ([2]; Table 3 series (STW 5), Expt. 1) | Contraction induced by acetylcholine (comparison for increase in basal tone) ([2]; Table 3 series (STW 5), Expt. 2) | Contraction induced by acetylcholine (comparison for increase in basal tone) ([2]; Table 3 series (STW 5), Expt. 3) | Contraction induced by acetylcholine (comparison for increase in basal tone) ([2]; Table 3 series (STW 5), Expt. 4) | Contraction induced by acetylcholine (comparison for increase in basal tone) ([2]; Table 3 series (STW 5), Expt. 5) | Contraction induced by acetylcholine (comparison for increase in basal tone) ([2]; Table 3 series (STW 5), Expt. 6) | Contraction induced by acetylcholine, Average value ([2]; Table 3 series (STW 5)) |
| --- | --- | --- | --- | --- | --- | --- | --- | --- | --- | --- | --- | --- | --- | --- | --- | --- | --- | --- | --- |
| COc1ccc2c(c1)c(CC(=O)O)c(C)n2C(=O)c1ccc(Cl)cc1 [Indomethacin] | 24.0 | 23.5 | 35.0 | 47.5 | 61.3 |  |  |  |  |  |  |  |  |  |  |  |  |  |  |
| CC(=O)OCC[N+](C)(C)C [Acetylch., acetylcholine] |  |  |  |  |  | 10.1 | 14.6 | 11.7 | 14.0 | 12.7 | 8.6 | 11.95 | 11.8 | 6.3 | 12.1 | 9.9 | 12.2 | 5.9 | 9.70 |
